Reference: ChEMBL document CHEMBL1129210, “Epidermal growth factor receptor tyrosine kinase: Structure-activity relationships and antitumour activity of novel quinazolines” (Bioorg Med Chem Lett, 1997)

Target: Epidermal growth factor receptor (Homo sapiens, UniProt P00533)
Assay: Tested for inhibition of Epidermal growth factor receptor from A431 vulval squamous carcinoma cells

Epidermal growth factor receptor, sequence (P00533 whole entry): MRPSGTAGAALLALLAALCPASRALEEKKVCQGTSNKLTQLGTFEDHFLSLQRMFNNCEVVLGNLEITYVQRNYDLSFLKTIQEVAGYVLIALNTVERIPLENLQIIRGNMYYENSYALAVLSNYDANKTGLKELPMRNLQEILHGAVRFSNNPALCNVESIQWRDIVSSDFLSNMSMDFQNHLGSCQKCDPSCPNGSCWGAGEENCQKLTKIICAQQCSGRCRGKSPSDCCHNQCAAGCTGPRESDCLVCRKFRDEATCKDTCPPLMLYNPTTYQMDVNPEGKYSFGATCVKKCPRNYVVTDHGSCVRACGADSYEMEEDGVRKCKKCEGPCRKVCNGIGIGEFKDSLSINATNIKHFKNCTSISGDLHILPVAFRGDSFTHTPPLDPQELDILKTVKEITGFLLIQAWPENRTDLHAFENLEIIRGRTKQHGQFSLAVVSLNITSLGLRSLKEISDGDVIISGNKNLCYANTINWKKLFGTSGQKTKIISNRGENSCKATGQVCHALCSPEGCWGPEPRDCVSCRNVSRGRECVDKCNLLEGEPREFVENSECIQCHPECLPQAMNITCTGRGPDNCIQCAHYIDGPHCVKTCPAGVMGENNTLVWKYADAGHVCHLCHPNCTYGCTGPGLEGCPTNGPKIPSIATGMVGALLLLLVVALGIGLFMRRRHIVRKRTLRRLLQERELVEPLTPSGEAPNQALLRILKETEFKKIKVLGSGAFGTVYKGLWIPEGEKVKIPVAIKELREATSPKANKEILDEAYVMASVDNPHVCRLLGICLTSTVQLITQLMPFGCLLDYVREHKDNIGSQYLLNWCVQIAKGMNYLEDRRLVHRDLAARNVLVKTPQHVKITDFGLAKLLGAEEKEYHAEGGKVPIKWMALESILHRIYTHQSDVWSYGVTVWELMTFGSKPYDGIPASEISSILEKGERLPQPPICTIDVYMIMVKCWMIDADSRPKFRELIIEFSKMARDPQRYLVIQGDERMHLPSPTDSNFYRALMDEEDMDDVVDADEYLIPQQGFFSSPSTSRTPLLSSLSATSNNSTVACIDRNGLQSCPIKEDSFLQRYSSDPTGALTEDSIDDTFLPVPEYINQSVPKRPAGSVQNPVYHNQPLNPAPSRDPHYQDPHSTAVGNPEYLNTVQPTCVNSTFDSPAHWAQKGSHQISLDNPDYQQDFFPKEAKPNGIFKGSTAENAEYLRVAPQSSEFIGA

Row | Structure (SMILES) | IC50 [µM]
1 | COc1cc2ncnc(NNc3ccc(F)c(Cl)c3)c2cc1OC | 0.43
2 | COc1cc2ncnc(Nc3cnc4ccccc4n3)c2cc1OC | 0.78
3 | COc1cc2ncnc(Nc3nccc4ccccc34)c2cc1OC | 0.2
4 | COc1cc2ncnc(Nc3nnc4ccccc4n3)c2cc1OC | 0.82
5 | COc1cc2ncnc(Nc3cncc4ccccc34)c2cc1OC | 0.0064
6 | COc1cc2ncnc(NC3CC3c3ccccc3)c2cc1OCCN1CCOCC1 (centres undefined) | 0.3
7 | COc1cc2ncnc(NC3CC3c3ccccc3)c2cc1OC(C)=O (centres undefined) | 0.084
8 | COc1cc2ncnc(NC3CC3c3ccccc3)c2cc1OCCCN(C)C (centres undefined) | 0.027
9 | COc1cc2ncnc(NC3CC3c3ccccc3)c2cc1O (centres undefined) | 0.39
10 | COc1cc2ncnc(N3CCc4ccccc43)c2cc1OC | 0.82

The remaining compounds from weak to strong by IC50, led by results:

Row | IC50 [µM] | Structure (SMILES)
11 | 0.91 | COc1cc2ncnc(NC3CCc4ccccc43)c2cc1OC (centres undefined)
12 | 0.73 | COc1cc2ncnc(/N=N/c3ccc(F)c(Cl)c3)c2cc1OC
13 | 0.17 | COc1cc2ncnc(NCc3cccc(C)c3)c2cc1OC
14 | 0.01 | COc1cc2ncnc(NC3CC3c3ccccc3)c2cc1OC (centres undefined)
